Data on ten compounds can be found in PubChem BioAssay (NCI).

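Five concentrations, 48 hours, 96-well plates. Here, GI50 denotes the concentration required for 50% inhibition of growth. TGI is the concentration that stops growth completely.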

Test systems include A498 renal; CCRF-CEM leukemia; COLO 205 colon; EKVX NSCLC; HCT-15 colon; NCI-H522 lung; OVCAR-3 ovarian; SN12C renal; SW-620 colon; UO-31 renal.
Holding throughout (test): NCI-60 cell line screen, 48 h

On to `N[C@@H]1CCCC[C@H]1N.O=C([O-])C(=O)[O-].[Pt+4]`, for which the GI50 with A498 renal is 4.85 µM; with CCRF-CEM leukemia, 0.35 µM; with COLO 205 colon it was 7.73 µM; with EKVX NSCLC it was 88.7 µM; in the experiment with HCT-15 colon, 0.646 µM; in the experiment with NCI-H522 lung it was 3.92 µM. For the same compound, the GI50 in the experiment with OVCAR-3 ovarian is 5.71 µM; in the experiment with SN12C renal, 2.56 µM; in the experiment with SW-620 colon, 0.0468 µM; with UO-31 renal, 8.47 µM. Further, the TGI was 32.7 µM in the experiment with A498 renal; greater than 100 µM in the experiment with CCRF-CEM leukemia; greater than 74.8 µM in the experiment on COLO 205 colon; greater than 100 µM with EKVX NSCLC; greater than 64.9 µM in the experiment on HCT-15 colon; 32.3 µM in the experiment with NCI-H522 lung. In addition, the TGI is 25.9 µM in the experiment with OVCAR-3 ovarian, greater than 100 µM in the experiment with SN12C renal, greater than 83.7 µM in the experiment on SW-620 colon and 43.6 µM in the experiment with UO-31 renal.

As for `O=c1c2ccccc2n(C[C@H]2CO2)c2ccccc12`, the GI50 in the experiment on A498 renal is 2.62 µM; in the experiment on CCRF-CEM leukemia, 0.771 µM; with COLO 205 colon, 1.49 µM; with EKVX NSCLC, 2.56 µM; with HCT-15 colon it was 1.68 µM; in the experiment with NCI-H522 lung, 1.61 µM. Besides, the GI50 in the experiment with OVCAR-3 ovarian is 2.31 µM; in the experiment with SN12C renal it was 1.8 µM; with SW-620 colon, 0.828 µM; in the experiment on UO-31 renal, 1.72 µM. Besides, the TGI with A498 renal was 6.57 µM; in the experiment on CCRF-CEM leukemia it was 21.7 µM; with COLO 205 colon it was 4.15 µM; in the experiment on EKVX NSCLC it was 6.44 µM; in the experiment with HCT-15 colon it was 5.27 µM; in the experiment with NCI-H522 lung, 3.74 µM. The TGI was found to be 7.19 µM in the experiment with OVCAR-3 ovarian, 7.05 µM in the experiment on SN12C renal, 12.7 µM with SW-620 colon and 4.96 µM with UO-31 renal.

For `CCC/C(=N/NC(=O)C(N)=O)C(CC)C(=O)CCC(=O)N(Cc1ccccc1)Cc1ccccc1` (stereo not given), the TGI with A498 renal, with CCRF-CEM leukemia, in the experiment with COLO 205 colon, with EKVX NSCLC, in the experiment with HCT-15 colon and with NCI-H522 lung was greater than 100 µM throughout. The TGI in the experiment on OVCAR-3 ovarian, in the experiment with SN12C renal, in the experiment with SW-620 colon and with UO-31 renal was greater than 100 µM in each case.

In the case of `COC(=O)/C([Se]c1c(C)cc(C)cc1C)=C(\[Se]c1c(C)cc(C)cc1C)C(=O)OC`, the TGI in the experiment on A498 renal, in the experiment on CCRF-CEM leukemia, in the experiment with COLO 205 colon, in the experiment on EKVX NSCLC, in the experiment on HCT-15 colon and in the experiment on NCI-H522 lung was greater than 100 µM each time. Besides, the TGI in the experiment on OVCAR-3 ovarian, in the experiment on SN12C renal, in the experiment on SW-620 colon and with UO-31 renal was greater than 100 µM in each case.

On to `Cn1c(/C=C(\C#N)c2ccccc2)nc2c(N3CCOCC3)nc(Cl)nc21`, for which the GI50 with A498 renal was 1.51 µM; in the experiment with CCRF-CEM leukemia, 0.295 µM; in the experiment on COLO 205 colon it was 1.34 µM; with EKVX NSCLC, 1.42 µM; in the experiment on HCT-15 colon, 0.233 µM; in the experiment on NCI-H522 lung, 0.74 µM. Besides, the GI50 was 0.673 µM in the experiment on OVCAR-3 ovarian, 1.12 µM with SN12C renal, 0.413 µM in the experiment on SW-620 colon and 0.553 µM in the experiment with UO-31 renal. Moreover, the TGI in the experiment with A498 renal worked out at 2.87 µM; in the experiment on CCRF-CEM leukemia, 0.971 µM; with COLO 205 colon, 2.93 µM; with EKVX NSCLC, 3.04 µM; in the experiment with HCT-15 colon, 0.641 µM; in the experiment on NCI-H522 lung it was 2.47 µM. For the same compound, the TGI in the experiment with OVCAR-3 ovarian came to 1.88 µM; in the experiment on SN12C renal, 2.48 µM; in the experiment on SW-620 colon, 1.51 µM; in the experiment on UO-31 renal it was 1.88 µM.

In the case of `O=C1c2cc3c(cc2-c2c1c1ccc(Cl)cc1c(=O)n2CCCNCCO)OCO3`, the GI50 is 1.27 µM in the experiment on A498 renal; 0.0347 µM in the experiment on CCRF-CEM leukemia; 1.09 µM in the experiment with COLO 205 colon; 1.63 µM in the experiment on EKVX NSCLC; 0.677 µM in the experiment on HCT-15 colon; 0.0372 µM with NCI-H522 lung. In addition, the GI50 with OVCAR-3 ovarian was 1.32 µM; with SN12C renal it was 1.08 µM; in the experiment with SW-620 colon it was 0.0506 µM; with UO-31 renal it was 0.0608 µM. Also, the TGI with A498 renal came to 2.65 µM; with CCRF-CEM leukemia, 1 µM; in the experiment on COLO 205 colon, 2.6 µM; with EKVX NSCLC, 3.42 µM; in the experiment with HCT-15 colon, 2.25 µM; in the experiment on NCI-H522 lung, 1.58 µM. Further, the TGI in the experiment with OVCAR-3 ovarian came to 2.83 µM; with SN12C renal, 2.81 µM; in the experiment on SW-620 colon, 0.366 µM; with UO-31 renal it was 1.87 µM.

Regarding `CC(C)c1ccc(C2C3=C(N=C4SCC(=O)N42)C(=O)c2ccccc23)cc1` (stereo not given), the TGI in the experiment with A498 renal was greater than 100 µM; with CCRF-CEM leukemia, greater than 100 µM; with COLO 205 colon it was greater than 100 µM; in the experiment with EKVX NSCLC, greater than 100 µM; with HCT-15 colon, greater than 100 µM; in the experiment with NCI-H522 lung it was 98.7 µM. Further, the TGI in the experiment with OVCAR-3 ovarian, in the experiment on SN12C renal, in the experiment on SW-620 colon and in the experiment with UO-31 renal was greater than 100 µM each time.

In the case of `C[S+](C)CCOC(=O)C(=[N+]=[N-])c1ccc([N+](=O)[O-])cc1`, the TGI in the experiment on A498 renal, with CCRF-CEM leukemia, with COLO 205 colon, in the experiment on EKVX NSCLC, in the experiment with HCT-15 colon and in the experiment with NCI-H522 lung was greater than 100 µM each time. Also, the TGI in the experiment on OVCAR-3 ovarian, in the experiment with SN12C renal, in the experiment on SW-620 colon and with UO-31 renal was greater than 100 µM each time.

`Ic1ccccc1-c1ccccc1`: the GI50 with A498 renal is 65.1 µM; in the experiment with CCRF-CEM leukemia it was 41.5 µM; in the experiment on COLO 205 colon, greater than 100 µM; in the experiment on EKVX NSCLC, greater than 100 µM; in the experiment on HCT-15 colon it was greater than 100 µM; in the experiment with NCI-H522 lung, greater than 100 µM. In addition, the GI50 was greater than 100 µM with OVCAR-3 ovarian, greater than 100 µM in the experiment on SN12C renal, greater than 100 µM in the experiment on SW-620 colon and 74.5 µM in the experiment on UO-31 renal. Further, the TGI in the experiment with A498 renal, in the experiment on CCRF-CEM leukemia, in the experiment with COLO 205 colon, in the experiment on EKVX NSCLC, in the experiment on HCT-15 colon and in the experiment on NCI-H522 lung was greater than 100 µM each time. The TGI in the experiment on OVCAR-3 ovarian, with SN12C renal, in the experiment with SW-620 colon and in the experiment on UO-31 renal was greater than 100 µM in each case.

Turning to `C=C(CN1C(=O)[C@H]2CCCN2C(=O)c2ccccc21)c1ccc(C(=O)O)cc1`, the GI50 in the experiment on A498 renal, with CCRF-CEM leukemia, with COLO 205 colon, with EKVX NSCLC, in the experiment with HCT-15 colon and in the experiment on NCI-H522 lung was greater than 100 µM each time. In addition, the GI50 in the experiment with OVCAR-3 ovarian, in the experiment on SN12C renal, in the experiment on SW-620 colon and in the experiment on UO-31 renal was greater than 100 µM each time. The TGI in the experiment on A498 renal, with CCRF-CEM leukemia, in the experiment on COLO 205 colon, in the experiment with EKVX NSCLC, in the experiment on HCT-15 colon and in the experiment on NCI-H522 lung was greater than 100 µM in each case. In addition, the TGI in the experiment on OVCAR-3 ovarian, in the experiment on SN12C renal, in the experiment with SW-620 colon and in the experiment with UO-31 renal was greater than 100 µM throughout.
